Data: paper PMC5878090 (Journal of controlled release : official journal of the …, 2015)
Each block holds one molecule with its values, some of them ahead of it.

How the values were obtained:
U87MG cells [1] = experiment: Anti-proliferation assay; type: cell-based; conditions: Homo sapiens, U-87 MG, 72 h, read-out: anti-proliferation IC50
U87MG cells [2] = experiment: Cell-cycle analysis; type: cell-based, human; conditions: 10 µM, 24 h, PI labeling
Integrin αvβ3 = Integrin αvβ3 (UniProt P06756); experiment: SPR
[3] = test system: U87MG subcutaneous xenografts; experiment: Anti-glioblastoma study in subcutaneous U87MG tumor model; type: in vivo, Balb/c nude mice; conditions: 50 mg/kg oral every 2 days until 9th day, n = 8; saline 8.3-fold

- IC50 (U87MG cells [1]): 7.6 µM
Molecule: COc1ccc(C2=N[C@@H](c3ccc(Cl)cc3)[C@@H](c3ccc(Cl)cc3)N2C(=O)N2CCNC(=O)C2)c(OC(C)C)c1 [Nutlin-3]
- cell-cycle arrest (U87MG cells [2]): effective cell-cycle arrest in the G1 and G2 phases

- Kd (Integrin αvβ3): 4.05 µM
Molecule: c(RGDyK)-conjugated poly(ethylene glycol)-block-poly(lactic acid) micelle carrying the sPMI peptide

Molecule: Cn1nnc2c(C(N)=O)ncn2c1=O [TMZ, temozolomide]
- tumor size fold increase on day 14 versus start of treatment [3]: 0.3 fold
